Several values for one entry are separate records, joined by “and”; a condition that tells them apart may be missing. Equal values may be shown once.
Key:
[1] = tested on: transformed tobacco seedlings; experiment: Growth of transformed tobacco seed on medium with 10001 (Example 24); assay type: in vivo, Nicotiana tabacum; settings: AGS502 (no P450 gene), 100 days
Method: Tobacco seed from plants transformed with several P450SU1 and P450SU1+FeS-Bconstructions were tested for their ability to grow on tissue culture medium supplemented with compound 10001. Seed was placed on medium containing: 0, 5, 10, 20, and 40 nM of compound 10001. After 100 days, the plants were visually rated for their resistance (due to herbicide detoxification) to the herbicide treatment. All plants grown in the absence of herbicide and those treated with the lowest levels (5 nM and 10 nM) of 10001 had grown so large that no comparative rating was possible. The severely growth inhibited plants (those grown in the presence of 20 nM and 40 nM of compound 10001) were scored by comparing them to AGS502 plants (transformed without P450 gene) in Table 23.
SCORING SYSTEM: Visual comparison to AGS502 plants which uniformly appeared:
Ratings: 0=essentially identical to AGS 502 controls; 1=marginally larger ([…]1.2×) than AGS502; 2=clearly larger (1.2 to 2×) than AGS502; 3=substantially larger (>2×) than AGS502.

[2] = tested on: S. lividans pCAO200SU2-FeS-A#11; experiment: Sulfonylurea metabolism by washed cell suspension (Examples 11-12); assay type: in vitro ADME, Streptomyces lividans; settings: for concentration in supernatant: substrate 10010
[3] = tested on: Tobacco plants (Nicotiana tabactum cv. Wisconsin 38); experiment: Foliar spray of 10015 on P450SU1 transformed tobacco plants (Example 21); assay type: in vivo, Nicotiana tabacum; settings: individual plants
Source text: Tobacco plants (Nicotiana tabactum cv. Wisconsin 38) transformed with plasmids pAGS112, pSU18, pSSU-SU111, pCab-SU121 or pCab-SU131 (singly) and accumulating the P450SU1 protein were identified by Western blot analysis. Seed arising from the self pollination of individual primary transformants designated AGS112, SU18.8, SU18.14, SSU-SU111.5, […], and Cab-SU131.5 gave rise to the plants described in this Example. The progeny of primary AGS112 and Cab-SU121.5 transformants segregated for single copy kanamycin resistance. In contrast, the progeny of the plants transformed with plasmids containing P450SU1 (other than Cab-SU121.5) segregated for multicopy kanamycin resistance. Thus, most plants containing the gene encoding P450SU1 and sprayed with 10015 in this Example likely contained at least one, and in many cases multiple, copies of P450SU1, while very few individuals likely carried no copies of the gene encoding P450SU1.
Seed from transformed and nontransformed tobacco plants was germinated in a commercial potting mix Metro-Mix® 350 for 25 days. Individual plants were then transferred to 4 inch×4 inch pots containing Metro Mix® 350 and were allowed to grow in the greenhouse for an additional 22 days at which time most plants contained 4-5 fully expanded leaves. A developmentally uniform population of plants was selected from among these transplants and the individual plants were then sprayed with a carrier solution of AGWT (90.2% Acetone: 4.8% Glycerol: 4.8% Water: 0.24% Tween 20 by volume) containing sulfonylurea compound 10015 at concentrations of 1,4, or 16 grams/hectare (g/ha). The sprayed plants were returned to the greenhouse and rated for injury 22 days later.

**Q.** How did the “appearance of AGS502 plants” value ([1]; 10001 20 nM) turn out when `CCOC(=O)c1ccccc1S(=O)(=O)NC(=O)Nc1nc(Cl)cc(OC)n1` [compound 10001, N-[(4-chloro-6-methoxy-pyrimidin-2-yl)aminocarbonyl]-2-ethoxycarbonylbenzenesulfonamide] was run?
**A.** The value was ~1 cm tall, 6 leaves ~1 cm diameter.

**Q.** And the “appearance of AGS502 plants” value ([1]; 10001 40 nM)?
**A.** The value was ~0.5 cm tall, 6 leaves ~0.3 cm diameter, chlorotic.

**Q.** Which results are given for `COC(=O)c1ccccc1S(=O)(=O)NC(=O)Nc1nc(C)cc(C)n1` [compound 10010, N-[(4,6-dimethylpyrimidin-2-yl)aminocarbonyl]-2-methoxycarbonylbenzenesulfonamide]?
**A.** concentration in supernatant ([2]; 2 h): 90 µM; concentration in supernatant ([2]; 4 h): 84 µM; concentration in supernatant ([2]; 6 h): 72 µM; metabolism compared with uninduced S. griseolus PH2001 ([2]; summary of Example 12): more readily than uninduced S. griseolus PH2001

**Q.** Which “% Damage” value ([3]; 1 g/ha, AGS 112, 22 days) does the source give for `COc1cc(OC)nc(NC(=O)NS(=O)(=O)c2cccc3c2S(=O)(=O)N(C(C)C)C3)n1` [compound 10015] here?
**A.** Its value is 0% and 10%.

**Q.** And the “% Damage” value ([3]; 1 g/ha, Cab-SU111.8, 22 days)?
**A.** Its value is 90% and 95%.

**Q.** And the “% Damage” value ([3]; 1 g/ha, Cab-SU121.5, 22 days)?
**A.** Its value is 85% and 95% and 20%.

**Q.** And the “% Damage” value ([3]; 1 g/ha, Cab-SU131.5, 22 days)?
**A.** Its value is 50% and 95% and 90%.

**Q.** What about the “% Damage” value ([3]; 1 g/ha, SSU-SU111.5, 22 days) of the same compound?
**A.** The value was 95%.

**Q.** And the “% Damage” value ([3]; 1 g/ha, SU18.14, 22 days)?
**A.** Its value is 40%.

**Q.** And the “% Damage” value ([3]; 1 g/ha, SU18.8, 22 days)?
**A.** The value was 10%.

**Q.** What about the “% Damage” value ([3]; 1 g/ha, W38, 22 days after spraying) of the same compound?
**A.** The value was 0% and 10%.

**Q.** What about the “% Damage” value ([3]; 4 g/ha, AGS 112, 22 days) of the same compound?
**A.** Its value is 0% and 40%.

**Q.** What about the “% Damage” value ([3]; 4 g/ha, Cab-SU111.8, 22 days) of the same compound?
**A.** Its value is 0% and 99%.

**Q.** And the “% Damage” value ([3]; 4 g/ha, Cab-SU121.5, 22 days)?
**A.** Its value is 90% and 100% and 95%.

**Q.** What about the “% Damage” value ([3]; 4 g/ha, Cab-SU131.5, 22 days) of the same compound?
**A.** The value was 40% and 100%.

**Q.** What about the “% Damage” value ([3]; 4 g/ha, SSU-SU111.5, 22 days) of the same compound?
**A.** Its value is 100%.

**Q.** What about the “% Damage” value ([3]; 4 g/ha, SU18.14, 22 days) of the same compound?
**A.** The value was 70%.

**Q.** And the “% Damage” value ([3]; 4 g/ha, SU18.8, 22 days)?
**A.** Its value is 60%.

**Q.** What about the “% Damage” value ([3]; 4 g/ha, W38, 22 days) of the same compound?
**A.** The value was 0% and 10% and 20% and 30%.

Reference: US5349127A, “Expression of herbicide metabolizing cytochromes P450” (priority 1992, dated 1994)
